Columns and labels:
[1] = test system: COR-L105; assay: cells; format: functional, cell-based; conditions: Homo sapiens
Description: SANGER: Inhibition of human COR-L105 cell growth in a cell viability assay.

[2] = test system: DK-MG; assay: cells; format: functional, cell-based; conditions: Homo sapiens;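 also: growth inhibition of DK-MG cells, read out with a cell viability assay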
Description: SANGER: Inhibition of human DK-MG cell growth in a cell viability assay.

[3] = test system: DMS-273; assay: cells; format: functional, cell-based; conditions: Homo sapiens
Description: SANGER: Inhibition of human DMS-273 cell growth in a cell viability assay.

[4] = test system: DU-145; assay: cells; format: functional, cell-based; conditions: Homo sapiens
Description: SANGER: Inhibition of human DU-145 cell growth in a cell viability assay.

[5] = test system: EFM-19; assay: cells; format: functional, cell-based; conditions: Homo sapiens;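 also: growth inhibition of human EFM-19 cells, measured in a cell viability assay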
Description: SANGER: Inhibition of human EFM-19 cell growth in a cell viability assay.

[6] = test system: ESS-1; assay: cells; format: functional, cell-based; conditions: Homo sapiens;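 also: growth inhibition of human ESS-1 cells, read out by a cell viability assay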
Description: SANGER: Inhibition of human ESS-1 cell growth in a cell viability assay.

[7] = test system: G-361; assay: cells; format: functional, cell-based; conditions: Homo sapiens
[8] = test system: G-402; assay: cells; format: functional, cell-based; conditions: Homo sapiens
Description: SANGER: Inhibition of human G-402 cell growth in a cell viability assay.

[9] = test system: GDM-1; assay: cells; format: functional, cell-based; conditions: Homo sapiens;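 also: cell viability readout used to measure growth inhibition of human GDM-1 cells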
Description: SANGER: Inhibition of human GDM-1 cell growth in a cell viability assay.

[10] = test system: H4; assay: cells; format: functional, cell-based; conditions: Homo sapiens
Description: SANGER: Inhibition of human H4 cell growth in a cell viability assay.

[11] = test system: HCC38; assay: cells; format: functional, cell-based; conditions: Homo sapiens;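 also: cell viability assay on the human HCC38 cell line, with IC50 marking the concentration that inhibits cell growth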
Description: SANGER: Inhibition of human HCC38 cell growth in a cell viability assay.

[12] = test system: HGC-27; assay: cells; format: functional, cell-based; conditions: Homo sapiens;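 also: growth inhibition of human HGC-27 cells, read out in a cell viability assay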
Description: SANGER: Inhibition of human HGC-27 cell growth in a cell viability assay.

[13] = test system: HOS; assay: cells; format: functional, cell-based; conditions: Homo sapiens;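 also: growth inhibition of human HOS cells, read out with a cell viability assay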
Description: SANGER: Inhibition of human HOS cell growth in a cell viability assay.

[14] = test system: HT-1080; assay: cells; format: functional, cell-based; conditions: Homo sapiens
Description: SANGER: Inhibition of human HT-1080 cell growth in a cell viability assay.

[15] = test system: HT55; assay: cells; format: functional, cell-based; conditions: Homo sapiens;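 also: cell viability readout measuring growth inhibition of human HT55 cells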
Description: SANGER: Inhibition of human HT55 cell growth in a cell viability assay.

[16] = test system: Hs-578T; assay: cells; format: functional, cell-based; conditions: Homo sapiens
Description: SANGER: Inhibition of human Hs-578-T cell growth in a cell viability assay.

[17] = test system: IGROV-1; assay: cells; format: functional, cell-based; conditions: Homo sapiens;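 also: reduction of IGROV-1 cell growth, read out with a viability assay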
Description: SANGER: Inhibition of human IGROV-1 cell growth in a cell viability assay.

[18] = test system: JIYOYE; assay: cells; format: functional, cell-based; conditions: Homo sapiens
Description: SANGER: Inhibition of human JiyoyeP-2003 cell growth in a cell viability assay.

[19] = test system: LB647-SCLC; assay: cells; format: functional, cell-based; conditions: Homo sapiens;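 also: cell growth inhibition, read out by a viability assay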
Description: SANGER: Inhibition of human LB647-SCLC cell growth in a cell viability assay.

[20] = test system: LC-1F; assay: cells; format: functional, cell-based; conditions: Homo sapiens;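 also: growth inhibition of human LC-1F cells, read out with a cell viability assay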
Description: SANGER: Inhibition of human LC-1F cell growth in a cell viability assay.

[21] = test system: LC4-1; assay: cells; format: functional, cell-based; conditions: Homo sapiens;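 also: growth inhibition of LC4-1 cells, read out with a cell viability assay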
Description: SANGER: Inhibition of human LC4-1 cell growth in a cell viability assay.

[22] = test system: LK-2; assay: cells; format: functional, cell-based; conditions: Homo sapiens;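 also: growth inhibition of LK-2 cells, read out with a viability assay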
Description: SANGER: Inhibition of human LK-2 cell growth in a cell viability assay.

[23] = test system: LU-99A; assay: cells; format: functional, cell-based; conditions: Homo sapiens;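 also: growth inhibition of LU-99A cells, read out with a cell viability assay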
Description: SANGER: Inhibition of human LU-99A cell growth in a cell viability assay.

[24] = test system: MC-CAR; assay: cells; format: functional, cell-based; conditions: Homo sapiens;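 also: growth inhibition of the human MC-CAR cell line, read out by a cell viability assay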
Description: SANGER: Inhibition of human MC-CAR cell growth in a cell viability assay.

[25] = test system: MDA-MB-175-VII; assay: cells; format: functional, cell-based; conditions: Homo sapiens
[26] = test system: MDA-MB-415; assay: cells; format: functional, cell-based; conditions: Homo sapiens
[27] = test system: MHH-CALL-2; assay: cells; format: functional, cell-based; conditions: Homo sapiens;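 also: growth inhibition of the cell line, read out in a cell viability assay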
Description: SANGER: Inhibition of human MHH-CALL-2 cell growth in a cell viability assay.

[28] = test system: MKN-45; assay: cells; format: functional, cell-based; conditions: Homo sapiens;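 also: growth inhibition of human MKN-45 cells, measured with a cell viability assay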
Description: SANGER: Inhibition of human MKN45 cell growth in a cell viability assay.

[29] = test system: MONO-MAC-6; assay: cells; format: functional, cell-based; conditions: Homo sapiens;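 also: cell viability assay measuring growth inhibition of human MONO-MAC-6 cells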
Description: SANGER: Inhibition of human MONO-MAC-6 cell growth in a cell viability assay.

[30] = test system: NCI-H1963; assay: cells; format: functional, cell-based; conditions: Homo sapiens;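 also: cell growth inhibition of the human line, determined with a cell viability assay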
Description: SANGER: Inhibition of human NCI-H1963 cell growth in a cell viability assay.

[31] = test system: NCI-H2087; assay: cells; format: functional, cell-based; conditions: Homo sapiens;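 also: growth inhibition determined with a cell viability readout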
Description: SANGER: Inhibition of human NCI-H2087 cell growth in a cell viability assay.

[32] = test system: NCI-H441; assay: cells; format: functional, cell-based; conditions: Homo sapiens;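 also: growth inhibition of NCI-H441 cells, read out with a cell viability assay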
Description: SANGER: Inhibition of human NCI-H441 cell growth in a cell viability assay.

[33] = test system: NCI-H596; assay: cells; format: functional, cell-based; conditions: Homo sapiens;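 also: growth inhibition of NCI-H596 cells, read out with a cell viability assay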
Description: SANGER: Inhibition of human NCI-H596 cell growth in a cell viability assay.

[34] = test system: NCI-H661; assay: cells; format: functional, cell-based; conditions: Homo sapiens;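 also: cell viability assay read-out, IC50 being the concentration that inhibits growth of the cells by half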
Description: SANGER: Inhibition of human NCI-H661 cell growth in a cell viability assay.

[35] = test system: NCI-H727; assay: cells; format: functional, cell-based; conditions: Homo sapiens;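 also: growth inhibition of human NCI-H727 cells, read out with a cell viability assay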
Description: SANGER: Inhibition of human NCI-H727 cell growth in a cell viability assay.

[36] = test system: OE33; assay: cells; format: functional, cell-based; conditions: Homo sapiens;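 also: growth inhibition of human OE33 cells, measured by a cell viability assay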
Description: SANGER: Inhibition of human OE33 cell growth in a cell viability assay.

[37] = test system: RERF-LC-MS; assay: cells; format: functional, cell-based; conditions: Homo sapiens;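 also: growth inhibition of human RERF-LC-MS cells, read out by a cell viability assay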
Description: SANGER: Inhibition of human RERF-LC-MS cell growth in a cell viability assay.

[38] = test system: RT-112; assay: cells; format: functional, cell-based; conditions: Homo sapiens
Description: SANGER: Inhibition of human RT-112 cell growth in a cell viability assay.

[39] = test system: Raji; assay: cells; format: functional, cell-based; conditions: Homo sapiens;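 also: cell viability assay measuring inhibition of Raji cell growth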
Description: SANGER: Inhibition of human Raji cell growth in a cell viability assay.

[40] = test system: S-117; assay: cells; format: functional, cell-based; conditions: Homo sapiens
Description: SANGER: Inhibition of human S-117 cell growth in a cell viability assay.

[41] = test system: SCC-4; assay: cells; format: functional, cell-based; conditions: Homo sapiens;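 also: growth inhibition of human SCC-4 cells, read out as cell viability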
Description: SANGER: Inhibition of human SCC-4 cell growth in a cell viability assay.

[42] = test system: SK-MM-2; assay: cells; format: functional, cell-based; conditions: Homo sapiens;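 also: growth inhibition of human SK-MM-2 cells, read out with a cell viability assay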
Description: SANGER: Inhibition of human SK-MM-2 cell growth in a cell viability assay.

[43] = test system: SNU-423; assay: cells; format: functional, cell-based; conditions: Homo sapiens
Description: SANGER: Inhibition of human SNU-423 cell growth in a cell viability assay.

[44] = test system: SUP-T1; assay: cells; format: functional, cell-based; conditions: Homo sapiens;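 also: growth inhibition of human SUP-T1 cells, read out as cell viability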
Description: SANGER: Inhibition of human SUP-T1 cell growth in a cell viability assay.

[45] = test system: SW1088; assay: cells; format: functional, cell-based; conditions: Homo sapiens;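 also: growth inhibition of human SW1088 cells, read out by a cell viability assay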
Description: SANGER: Inhibition of human SW1088 cell growth in a cell viability assay.

[46] = test system: SW837; assay: cells; format: functional, cell-based; conditions: Homo sapiens;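 also: growth inhibition of SW837 cells, determined with a cell viability assay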
Description: SANGER: Inhibition of human SW837 cell growth in a cell viability assay.

[47] = test system: SAOS-2; assay: cells; format: functional, cell-based; conditions: Homo sapiens;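 also: growth inhibition of human Saos-2 cells determined by a cell viability assay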
Description: SANGER: Inhibition of human Saos-2 cell growth in a cell viability assay.

[48] = test system: 5637; assay: cells; format: functional, cell-based; conditions: Homo sapiens
Description: SANGER: Inhibition of human 5637 cell growth in a cell viability assay.

[49] = test system: 8305C; assay: cells; format: functional, cell-based; conditions: Homo sapiens
Description: SANGER: Inhibition of human 8305C cell growth in a cell viability assay.

[50] = test system: A 172; assay: cells; format: functional, cell-based; conditions: Homo sapiens;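 also: growth inhibition of A172 cells, measured with a cell viability readout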
Description: SANGER: Inhibition of human A172 cell growth in a cell viability assay.

[51] = test system: A2780; assay: cells; format: functional, cell-based; conditions: Homo sapiens;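 also: growth inhibition of A2780 cells, read out with a cell viability assay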
Description: SANGER: Inhibition of human A2780 cell growth in a cell viability assay.

[52] = test system: A-427; assay: cells; format: functional, cell-based; conditions: Homo sapiens;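 also: growth inhibition of human A-427 cells, read out by a cell viability assay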
Description: SANGER: Inhibition of human A427 cell growth in a cell viability assay.

[53] = test system: A-431; assay: cells; format: functional, cell-based; conditions: Homo sapiens;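 also: growth inhibition of A-431 cells, determined with a cell viability read-out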
Description: SANGER: Inhibition of human A431 cell growth in a cell viability assay.

[54] = test system: BL-70; assay: SANGER: Inhibition of human BL-70 cell growth in a cell viability assay.; format: functional, cell-based
[55] = test system: C3A; assay: cells; format: functional, cell-based; conditions: Homo sapiens;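 also: growth inhibition of C3A human cells, quantified with a cell viability readout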
Description: SANGER: Inhibition of human C3A cell growth in a cell viability assay.

[56] = test system: CAL-120; assay: cells; format: functional, cell-based; conditions: Homo sapiens;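 also: cell growth inhibition, read out as cell viability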
Description: SANGER: Inhibition of human CAL-120 cell growth in a cell viability assay.

[57] = test system: CAL-12T; assay: cells; format: functional, cell-based, Homo sapiens; conditions: Homo sapiens, CAL-12T;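 also: growth inhibition of human CAL-12T cells, read out with a cell viability assay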
Description: SANGER: Inhibition of human CAL-12T cell growth in a cell viability assay.

[58] = test system: CAL-33; assay: cells; format: functional, cell-based; conditions: Homo sapiens;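 also: growth inhibition of CAL-33 cells, read out with a cell viability assay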
Description: SANGER: Inhibition of human CAL-33 cell growth in a cell viability assay.

[59] = test system: TE-441-T; assay: cells; format: functional, cell-based; conditions: Homo sapiens
Description: SANGER: Inhibition of human TE-441-T cell growth in a cell viability assay.

[60] = test system: U-698-M; assay: cells; format: functional, cell-based; conditions: Homo sapiens
Description: SANGER: Inhibition of human U-698-M cell growth in a cell viability assay.

[61] = test system: UO-31; assay: cells; format: functional, cell-based; conditions: Homo sapiens
Description: SANGER: Inhibition of human U031 cell growth in a cell viability assay.

[62] = test system: U-251; assay: cells; format: functional, cell-based; conditions: Homo sapiens;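 also: growth inhibition of human U-251 cells, read out through a cell viability assay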
Description: SANGER: Inhibition of human U251 cell growth in a cell viability assay.

[63] = test system: YAPC; assay: cells; format: functional, cell-based; conditions: Homo sapiens;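 also: growth inhibition of YAPC cells, measured with a cell viability assay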
Description: SANGER: Inhibition of human YAPC cell growth in a cell viability assay.

[64] = test system: CAPAN-1; assay: cells; format: functional, cell-based; conditions: Homo sapiens;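 also: growth suppression of CAPAN-1 cells, read out by a cell viability assay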
Description: SANGER: Inhibition of human CAPAN-1 cell growth in a cell viability assay.

[65] = test system: CHP-126; assay: cells; format: functional, cell-based; conditions: Homo sapiens
Description: SANGER: Inhibition of human CHP-126 cell growth in a cell viability assay.

For `CC(O)(CS(=O)(=O)c1ccc(F)cc1)C(=O)Nc1ccc(C#N)c(C(F)(F)F)c1` (stereo not given) [BICALUTAMIDE], the IC50 [1] was over 1.02 µM, the IC50 [2] was over 1.02 µM and the IC50 [3] was over 1.02 µM. For the same molecule, the IC50 [4] was over 1.02 µM, the IC50 [5] was over 1.02 µM and the IC50 [6] was over 1.02 µM. The IC50 [7] was over 1.02 µM, the IC50 [8] was over 1.02 µM and the IC50 [9] was over 1.02 µM. The IC50 [10] was over 1.02 µM, the IC50 [11] was over 1.02 µM and the IC50 [12] was over 1.02 µM. It also gave an IC50 [13] of over 1.02 µM, an IC50 [14] of over 1.02 µM and an IC50 [15] of over 1.02 µM. It also gave an IC50 [16] of over 1.02 µM, an IC50 [17] of over 1.02 µM and an IC50 [18] of over 1.02 µM. For the same molecule, the IC50 [19] was over 1.02 µM, the IC50 [20] was over 1.02 µM and the IC50 [21] was over 1.02 µM. It also gave an IC50 [22] of over 1.02 µM, an IC50 [23] of over 1.02 µM and an IC50 [24] of over 1.02 µM. The IC50 [25] was over 1.02 µM, the IC50 [26] was over 1.02 µM and the IC50 [27] was over 1.02 µM. For the same molecule, the IC50 [28] was over 1.02 µM, the IC50 [29] was over 1.02 µM and the IC50 [30] was over 1.02 µM. For the same molecule, the IC50 [31] was over 1.02 µM, the IC50 [32] was over 1.02 µM and the IC50 [33] was over 1.02 µM. For the same molecule, the IC50 [34] was over 1.02 µM, the IC50 [35] was over 1.02 µM and the IC50 [36] was over 1.02 µM. The IC50 [37] was over 1.02 µM, the IC50 [38] was over 1.02 µM and the IC50 [39] was over 1.02 µM. It also gave an IC50 [40] of over 1.02 µM, an IC50 [41] of over 1.02 µM and an IC50 [42] of over 1.02 µM. It also gave an IC50 [43] of over 1.02 µM, an IC50 [44] of over 1.02 µM and an IC50 [45] of over 1.02 µM. For the same molecule, the IC50 [46] was over 1.02 µM, the IC50 [47] was over 1.02 µM and the IC50 [48] was over 1.02 µM. It also gave an IC50 [49] of over 1.02 µM, an IC50 [50] of over 1.02 µM and an IC50 [51] of over 1.02 µM. For the same molecule, the IC50 [52] was over 1.02 µM, the IC50 [53] was over 1.02 µM and the IC50 [54] was over 1.02 µM. The IC50 [55] was over 1.02 µM, the IC50 [56] was over 1.02 µM and the IC50 [57] was over 1.02 µM. For the same molecule, the IC50 [58] was over 1.02 µM, the IC50 [59] was over 1.02 µM and the IC50 [60] was over 1.02 µM. The IC50 [61] was over 1.02 µM, the IC50 [62] was over 1.02 µM and the IC50 [63] was over 1.02 µM. It also gave an IC50 [64] of over 1.02 µM and an IC50 [65] of over 1.02 µM.
For `CCNC(=O)c1noc(-c2cc(C(C)C)c(O)cc2O)c1-c1ccc(CN2CCOCC2)cc1` [LUMINESPIB], the IC50 [1] was 0.0191 µM, the IC50 [2] was 0.0753 µM and the IC50 [3] was 0.0348 µM. The IC50 [4] was 0.0129 µM, the IC50 [5] was over 0.256 µM and the IC50 [6] was 0.0787 µM. For the same molecule, the IC50 [7] was 0.0268 µM, the IC50 [8] was 0.0361 µM and the IC50 [9] was 0.0084 µM. For the same molecule, the IC50 [10] was 0.0137 µM, the IC50 [11] was 0.0377 µM and the IC50 [12] was 0.0176 µM. For the same molecule, the IC50 [13] was 0.00138 µM, the IC50 [14] was 0.0221 µM and the IC50 [15] was over 0.256 µM. The IC50 [16] was over 0.256 µM, the IC50 [17] was 0.00814 µM and the IC50 [18] was 0.0339 µM. It also gave an IC50 [19] of 0.24 µM, an IC50 [20] of over 0.256 µM and an IC50 [21] of 0.115 µM. The IC50 [22] was 0.102 µM, the IC50 [23] was 0.0729 µM and the IC50 [24] was 0.0457 µM. For the same molecule, the IC50 [25] was over 0.256 µM, the IC50 [26] was 0.197 µM and the IC50 [27] was over 0.256 µM. It also gave an IC50 [28] of 0.206 µM, an IC50 [29] of 0.0389 µM and an IC50 [30] of 0.0518 µM. For the same molecule, the IC50 [31] was 0.0329 µM, the IC50 [32] was 0.109 µM and the IC50 [33] was 0.174 µM. For the same molecule, the IC50 [34] was 0.112 µM, the IC50 [35] was 0.0103 µM and the IC50 [36] was 0.0424 µM. It also gave an IC50 [37] of 0.134 µM, an IC50 [38] of 0.00535 µM and an IC50 [39] of over 0.256 µM. For the same molecule, the IC50 [40] was 0.127 µM, the IC50 [41] was 0.0281 µM and the IC50 [42] was 0.111 µM. The IC50 [43] was 0.0105 µM, the IC50 [44] was 0.0676 µM and the IC50 [45] was over 0.256 µM. The IC50 [46] was 0.0301 µM, the IC50 [47] was 0.076 µM and the IC50 [48] was 0.0282 µM. For the same molecule, the IC50 [49] was 0.0307 µM, the IC50 [50] was 0.0395 µM and the IC50 [51] was 0.0171 µM. The IC50 [52] was 0.013 µM, the IC50 [53] was 0.00607 µM and the IC50 [54] was 0.0339 µM. For the same molecule, the IC50 [55] was 0.0248 µM, the IC50 [56] was 0.0424 µM and the IC50 [57] was 0.00922 µM. The IC50 [58] was 0.0438 µM, the IC50 [59] was 0.0493 µM and the IC50 [60] was 0.0738 µM. The IC50 [61] was 0.0477 µM, the IC50 [62] was 0.0476 µM and the IC50 [63] was over 0.256 µM. For the same molecule, the IC50 [64] was 0.0714 µM and the IC50 [65] was 0.0757 µM.
